Values of other authors as cited in patent US20140017187A1, “Use of 5-(7-methoxy-3,3-dimethyl-2,3-dihydro-1-benzoxepin-5-yl)-3-methyl-penta-2,4-dienoic acid as a cosmetic” (Merck Patent GmbH, priority 2008, published 2014).

Target: T1, PPAR-alpha (Homo sapiens, UniProt Q07869)
T1 sequence (Q07869 1-468): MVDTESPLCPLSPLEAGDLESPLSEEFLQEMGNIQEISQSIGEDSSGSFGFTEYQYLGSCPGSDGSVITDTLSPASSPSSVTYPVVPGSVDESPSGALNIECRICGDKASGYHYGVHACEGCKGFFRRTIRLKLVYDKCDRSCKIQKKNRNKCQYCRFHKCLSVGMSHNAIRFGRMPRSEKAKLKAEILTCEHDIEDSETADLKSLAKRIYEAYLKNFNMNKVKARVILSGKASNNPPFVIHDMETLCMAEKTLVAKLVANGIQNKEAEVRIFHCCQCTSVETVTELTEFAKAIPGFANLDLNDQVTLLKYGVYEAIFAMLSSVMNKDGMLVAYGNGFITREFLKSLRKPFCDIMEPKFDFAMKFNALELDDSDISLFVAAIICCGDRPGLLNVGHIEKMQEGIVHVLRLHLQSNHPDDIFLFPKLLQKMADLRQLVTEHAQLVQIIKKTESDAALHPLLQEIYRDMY
Settings: personal communication Johann Wiechers; cited from earlier work

For Octadecenedioic acid [O.D.A. White], which PPAR-alpha activation is on record?
Its PPAR-alpha activation is “negligible”.
